Like-named read-outs stand apart in the source and are kept apart here.
What was measured:
[1] = test system: Aedes aegypti resistant to permethrin (Key West strain); assay: Wind tunnel bioassay, various pyrethroids (Example 7); assay type: in vivo; conditions: pyrethroid alone 0.5% A.I., C8910 0%, 24 hours post-spray, mean
Source text: This exposed 80 caged A. aegypti to the spray. Each test was replicated four times.

[2] = test system: Cimex lectularius resistant to deltamethrin (Lex8 strain); conditions: observed, d-Phenothrin 0.375% alone
Method: (§1) Synergy was calculated using Abbott's synergy equation described in Levy Y et al., The joint action of fungicides in mixtures: comparison of two methods for synergy calculation, Bulletin OEPP/EPPO Bulletin, 1986, 16, 651-657. Specifically, a ratio greater than 1.0 of observed to expected percent mortality for combinations of two pesticides is evidence of synergy. Expected % mortality was calculated using the formula % Cexp=A+B−[…] where A is percent mortality of A. aegypti exposed to C8, 9, 10, B is percent mortality of A. aegypti exposed to permethrin and Cexp is expected percent mortality of A. aegypti exposed to a combination of C8, 9, 10 and permethrin.
(§2) The actives were suspended in 1 milliliter oil-based ultra-low volume sprays and sprayed into the wind tunnel. This exposed 10 adult male beg bugs to the spray. Each test was replicated three times. 1, 2, 3 and 4-day mortality of the bed bugs was then observed.

[3] = test system: Cimex lectularius susceptible to insecticides (Harold Harlan strain); conditions: observed, d-Phenothrin 0.25% alone
Method: as §1, §2

[4] = test system: pyrethroid susceptible Aedes aegypti; assay: CDC bottle bioassay, susceptible strain; assay type: in vivo
Method: (§3) The following bioassays were performed to determine how pyrethroid susceptible and pyrethroid resistant Aedes aegypti responded to exposure to permethrin and the fatty acids mixture, separately and combined. The standard Centers for Disease Control (“CDC”) bottle bioassay method was used. The testing was conducted at Centro Internacional de Entrenamiento e Investigaciones Médicas (“CIDEIM”) in Colombia with susceptible and resistant Aedes aegypti. The compounds were diluted in acetone, added to the bottles, and bottles were rolled to coat them internally until dry. Susceptible and resistant mosquitoes were exposed inside the treated bottles.
(§4) Bottle bioassays assess susceptibility by measuring time-to-death of mosquitoes exposed in bottles coated internally with a “diagnostic concentration” of the test compound.

[5] = test system: pyrethroid resistant Aedes aegypti; assay: CDC bottle bioassay, resistant strain; assay type: in vivo; conditions: bottle coated with diagnostic concentration, n=5
Method: as §3, §4

[6] = test system: Aedes aegypti resistant and susceptible to permethrin; assay: WHO wind tunnel bioassay (Example 4); assay type: in vivo; conditions: 24 hour mortality
Method: In this bioassay, the standard WHO wind tunnel bioassay was used by CIDEIM. Aedes aegypti that were known to be resistant and susceptible to permethrin were used in the studies. […] solutions were prepared with the following ratios of C8, 9, 10 fatty acids mixture to permethrin: 2:1 (0.67% C8910+0.33% permethrin); 1:1 (0.5% C8910+0.5% permethrin); and 1:2 (0.33% C8910+0.67% permethrin). A one percent permethrin formulation was tested as well as a C8, 9, 10 fatty acids mixture.
The solutions were diluted in acetone to 1%, 0.1%, 0.01%, 0.001%, 0.0001%, and 0.00001%. Then 0.5 ml of each dilution was sprayed into the wind tunnel. This exposed 20 caged mosquitos to the spray. Each test was replicated three times. The 24 hour mortality was then observed. This type of assay is desirable because it tests the compounds without being formulated.

[7] = test system: Aedes aegypti resistant to permethrin (Key West strain); conditions: observed, C8910 0%
Source text: (§5) In this bioassay, Aedes aegypti known to be resistant to permethrin (Key West strain) were exposed to C8, 9, 10 alone, permethrin alone, and combinations of C8, 9, 10 and permethrin at 1:5, 1:2, 1:1, 2:1 and 5:1 ratios in a standard wind tunnel bioassay. The actives were suspended in 1 milliliter oil-based ultra-low volume sprays and sprayed into the wind tunnel. This exposed 80 caged A. aegypti to the spray. Each test was replicated four times. Fifteen-minute, one-hour and twenty-four hour mortality of the resistant A. aegypti was then observed.
as §1

[8] = test system: A. aegypti susceptible to permethrin (Benzon research strain); conditions: observed, C8910 0%
Source text: as §5, §1
In this assay, A. aegypti known to be susceptible to permethrin (Benzon research strain) were exposed to C8, 9, 10 alone, permethrin alone, and combinations of C8, 9, 10 and permethrin at 1:5, 1:2, 1:1, 2:1 and 5:1 ratios in a standard wind tunnel bioassay identical to that described above.

[9] = susceptible strain, bottle coated with diagnostic concentration, n=5

CC(C)=C[C@@H]1[C@@H](C(=O)O[C@H](C#N)c2cccc(Oc3ccccc3)c2)C1(C)C (relative stereo) [d,d,trans-cyphenothrin, d,d,trans-Cyphenothrin]
% Mortality 24 hour [1]: 76%

CC(C)=CC1C(C(=O)OCc2cccc(Oc3ccccc3)c2)C1(C)C (stereo not drawn) [d-Phenothrin, Sumithrin (d-phenothrin)]
% Mortality ([2]; 1 day): 6.7% | % Mortality ([2]; 2 days): 10.0% | % Mortality ([3]; 1 day): 0.0% | % Mortality ([3]; 2 days): 0.0% | % Mortality ([3]; 3 days): 46.7% | % Mortality ([3]; 4 days): 56.7%

CC1(C)C(C(=O)OC(C#N)c2cccc(Oc3ccccc3)c2)C1(C)C (centres unmarked) [Fenpropathrin]
mortality at 0.5 % strength ([1]; Aedes aegypti): 65%

CC1(C)C(C=C(Cl)Cl)C1C(=O)OCc1cccc(Oc2ccccc2)c1 (centres unmarked) [Permethrin]
mortality ([4]; susceptible mosquitos, at about 80 minutes, FIG. 1): ~100% | LT50 [4, 9]: 18.8 min | LT99 [4, 9]: 99.3 min | LT50 [5]: 73.5 min | LT99 [5]: 306.7 min | mortality rate of resistant compared with susceptible mosquitos [6]: lower mortality rates | % Mortality ([7]; 15 min, Permethrin 1.6%): 28.1% | % Mortality ([7]; 15 min, Permethrin 4.0%): 34.4% | % Mortality ([7]; 1 hour, Permethrin 1.6%): 41.6% | % Mortality ([7]; 1 hour, Permethrin 4.0%): 49.4% | % Mortality ([7]; 24 hour, Permethrin 1.6%): 55.0% | % Mortality ([7]; 24 hour, Permethrin 4.0%): 63.4% | % Mortality ([8]; 15 min, Permethrin 0.4%): 4.4% | % Mortality ([8]; 15 min, Permethrin 1.0%): 26.9% | % Mortality ([8]; 1 hour, Permethrin 0.4%): 34.1% | % Mortality ([8]; 1 hour, Permethrin 1.0%): 54.4% | % Mortality ([8]; 24 hour, Permethrin 0.4%): 42.5% | % Mortality ([8]; 24 hour, Permethrin 1.0%): 65.3%

— patent publication US20180125068A1, “OCTANOIC, NONANOIC AND DECANOIC FATTY ACIDS WITH PYRETHROID ADULTICIDES” (priority 2016, published 2018)
